In US20090099192A1, “Substituted 1H-pyrrole-2,5-diones” (Bayer CropScience AG, priority 2004, published 2009):

Test: logP determination by HPLC on reversed-phase column (C 18), EEC Directive 79/831 Annex V.A8
Assay type: physicochemical
Conditions: reversed-phase C 18, 43° C., acid range (0.1% aqueous phosphoric acid, acetonitrile), marked a)
Procedure: a) The logP values given in table 1 were determined in accordance with EEC Directive 79/831 Annex V.A8 by HPLC (High Performance Liquid Chromatography) on a reversed-phase column (C 18). Temperature: 43° C. (a) Mobile phases for the determination in the acid range: 0.1% aqueous phosphoric acid, acetonitrile; linear gradient from 10% acetonitrile to 90% acetonitrile—corresponding measurement results are marked a) in table 1. Calibration was carried out using unbranched alkan-2-ones (having 3 to 16 carbon atoms) with known logP values (determination of the logP values by the retention times using linear interpolation between two successive alkanones).

logP	Structure (SMILES)
logp = 4.18^a)	O=C1C(O)=C(c2ccc(C(F)(F)F)cc2)C(=O)N1Cc1cc(Cl)cc(Cl)c1 [Example 116]
logP = 4.61^a)	Cc1ccc(-c2ccc(Cl)cc2)cc1C1=C(O)C(=O)N(CC(C)(C)C)C1=O [Example 138]
logP = 2.70^a)	N#Cc1ccc(C2=C(O)C(=O)N(c3ccc(OC(F)(F)F)cc3)C2=O)cc1 [Example 54]
logP = 3.75^a)	O=C1C(O)=C(c2cccc(C(F)(F)F)c2)C(=O)N1c1ccc(OC(F)(F)F)cc1 [Example 53]
logP = 3.75^a)	O=C1C(O)=C(c2ccc(C(F)(F)F)cc2)C(=O)N1c1cc(Cl)cc(Cl)c1 [Example 79]
logP = 3.78^a)	O=C1C(O)=C(c2cccc(C(F)(F)F)c2)C(=O)N1c1cc(Cl)cc(Cl)c1 [Example 75]
logP = 4.61^a)	Cc1ccc(-c2ccc(Cl)cc2)cc1C1=C(O)C(=O)N(Cc2cccc(Cl)c2)C1=O [Example 123]
logP = 2.60^a)	O=C1C(O)=C(c2ccccc2Cl)C(=O)N1c1ccccc1C(F)(F)F [Example 25]
logP = 3.80^a)	O=C1C(O)=C(c2ccc(OC(F)(F)F)cc2)C(=O)N1c1ccc(Cl)cc1 [Example 62]
logP = 4.21^a)	O=C1C(O)=C(c2cc(Cl)cc(Cl)c2)C(=O)N1Cc1cc(Cl)cc(Cl)c1 [Example 118]
logP = 3.04^a)	O=C1C(O)=C(c2ccc(OC(F)(F)F)cc2)C(=O)N1CC(F)(F)F [Example 39]
logP = 2.80^a)	N#Cc1ccc(C2=C(O)C(=O)N(c3cc(Cl)cc(Cl)c3)C2=O)cc1 [Example 77]
logP = 4.51^a)	Cc1ccc(-c2ccc(Cl)cc2)cc1C1=C(O)C(=O)N(c2ccc(Cl)cc2Cl)C1=O [Example 126]
logP = 3.40^a)	O=C1C(O)=C(c2ccc(C(F)(F)F)cc2)C(=O)N1Cc1ccccc1F [Example 100]
logP = 3.48^a)	O=C1C(O)=C(c2cccc(C(F)(F)F)c2)C(=O)N1Cc1ccccc1F [Example 96]
logP = 4.27^a)	Cc1ccc(C2=C(O)C(=O)N(Cc3ccc(OC(F)(F)F)cc3)C2=O)cc1 [Example 92]
logP = 4.94^a)	Cc1ccc(-c2ccc(Cl)cc2)cc1C1=C(O)C(=O)N(C(C)c2ccc(Cl)cc2)C1=O (stereo not drawn) [Example 120]
logP = 2.76^a)	CCOC(=O)C1(N2C(=O)C(O)=C(c3ccccc3Cl)C2=O)CCC(OC)CC1 (single isomer, unassigned) [Example 149]
logP = 5.39^a)	CC(C)(C)C(=O)OC1=C(c2ccccc2Cl)C(=O)N(C2CCCCC2)C1=O [Example 23]
logP = 5.85^a)	CCOC(=O)C1(N2C(=O)C(OC(=O)C(C)(C)C)=C(c3ccccc3Cl)C2=O)CCCC(C)C1 (stereo not drawn) [Example 170]
logP = 3.17^a)	O=C1C(O)=C(c2ccccc2Cl)C(=O)N1C1CCCCC1 [Example 22]
logP = 2.74^a)	CCOC(=O)CCN1C(=O)C(O)=C(c2ccc(C)cc2)C1=O [Example 180]
logP = 4.48^a)	O=C1C(O)=C(c2ccc(OC(F)(F)F)cc2)C(=O)N1Cc1ccc(OC(F)(F)F)cc1 [Example 86]
logP = 3.94^a)	O=C1C(O)=C(c2ccc(Cl)cc2)C(=O)N1c1cc(Cl)cc(Cl)c1 [Example 78]
logP = 4.48^a)	O=C1C(O)=C(c2ccc(Cl)cc2)C(=O)N1Cc1cc(Cl)cc(Cl)c1 [Example 115]
logP = 3.67^a)	O=C1C(O)=C(c2ccccc2Cl)C(=O)N1Cc1cc(Cl)cc(Cl)c1 [Example 111]
logP = 3.13^a)	O=C1C(O)=C(c2ccccc2F)C(=O)N1c1ccc(OC(F)(F)F)cc1 [Example 51]
logP = 2.82^a)	O=C1C(O)=C(c2cccc(OC(F)(F)F)c2)C(=O)N1CC(F)(F)F [Example 42]
logP = 3.81^a)	CCOc1cccc(F)c1CN1C(=O)C(O)=C(c2ccc(C(F)(F)F)cc2)C1=O [Example 184]
logP = 3.59^a)	O=C1C(O)=C(c2cccc(C(F)(F)F)c2)C(=O)N1c1ccc(C(F)(F)F)cc1 [Example 68]
